In BindingDB's records for doi:10.1007/s002130100844 (Case Western Reserve University, 2001):
Several values for one entry are separate records, joined by “and”; a condition that tells them apart may be missing. Identical values can stand only once.

Legend:
[1] = target: Gamma-aminobutyric acid type B receptor subunit 1 (UniProt Q9Z0U4)
[2] = target: Delta-type opioid receptor (Homo sapiens, UniProt P41143)
[3] = target: 5-hydroxytryptamine receptor 2A (Rattus norvegicus, UniProt P14842)
[4] = target: Kappa-type opioid receptor (Homo sapiens, UniProt P41145)
Mu-type opioid receptor = Mu-type opioid receptor (Homo sapiens, UniProt P35372)
[5] = target: Sodium-dependent serotonin transporter (Homo sapiens, UniProt P31645)
[6] = target: Sodium-dependent noradrenaline transporter (Homo sapiens, UniProt P23975)
[7] = target: 5-hydroxytryptamine receptor 1D (Homo sapiens, UniProt P28221)
[8] = target: 5-hydroxytryptamine receptor 7 (Homo sapiens, UniProt P34969)
Sequence of 5-hydroxytryptamine receptor 7 (P34969 whole entry): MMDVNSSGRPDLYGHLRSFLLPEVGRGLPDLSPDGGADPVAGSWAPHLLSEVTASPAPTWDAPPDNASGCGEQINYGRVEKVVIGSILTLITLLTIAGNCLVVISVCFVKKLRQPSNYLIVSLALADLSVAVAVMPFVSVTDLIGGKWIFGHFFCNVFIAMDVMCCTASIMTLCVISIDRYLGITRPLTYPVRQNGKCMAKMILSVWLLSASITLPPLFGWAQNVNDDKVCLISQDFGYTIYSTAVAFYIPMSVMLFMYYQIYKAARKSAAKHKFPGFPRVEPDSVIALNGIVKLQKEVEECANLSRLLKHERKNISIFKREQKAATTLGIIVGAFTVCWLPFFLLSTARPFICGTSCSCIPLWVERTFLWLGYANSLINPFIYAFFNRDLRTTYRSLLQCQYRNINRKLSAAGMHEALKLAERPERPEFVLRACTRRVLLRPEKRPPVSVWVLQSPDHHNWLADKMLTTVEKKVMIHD

D(2) dopamine receptor = D(2) dopamine receptor (Rattus norvegicus, UniProt P61169)
[9] = target: 5-hydroxytryptamine receptor 1E (Homo sapiens, UniProt P28566)
[10] = target: Beta-2 adrenergic receptor (Homo sapiens, UniProt P07550)
Sequence of Beta-2 adrenergic receptor (P07550 whole entry): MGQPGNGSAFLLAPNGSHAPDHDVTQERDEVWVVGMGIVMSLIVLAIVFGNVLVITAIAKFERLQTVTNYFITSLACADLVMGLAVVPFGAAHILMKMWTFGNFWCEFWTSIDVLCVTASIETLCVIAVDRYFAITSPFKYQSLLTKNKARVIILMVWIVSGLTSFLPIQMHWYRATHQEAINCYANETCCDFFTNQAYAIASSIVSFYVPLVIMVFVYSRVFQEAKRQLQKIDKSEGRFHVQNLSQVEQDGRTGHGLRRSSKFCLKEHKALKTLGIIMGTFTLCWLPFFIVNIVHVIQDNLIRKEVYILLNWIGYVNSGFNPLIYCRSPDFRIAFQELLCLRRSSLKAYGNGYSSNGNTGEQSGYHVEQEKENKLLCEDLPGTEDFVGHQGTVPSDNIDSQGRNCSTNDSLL

[11] = target: Muscarinic acetylcholine receptor M3 (Homo sapiens, UniProt P20309)
Sequence of Muscarinic acetylcholine receptor M3 (P20309 whole entry): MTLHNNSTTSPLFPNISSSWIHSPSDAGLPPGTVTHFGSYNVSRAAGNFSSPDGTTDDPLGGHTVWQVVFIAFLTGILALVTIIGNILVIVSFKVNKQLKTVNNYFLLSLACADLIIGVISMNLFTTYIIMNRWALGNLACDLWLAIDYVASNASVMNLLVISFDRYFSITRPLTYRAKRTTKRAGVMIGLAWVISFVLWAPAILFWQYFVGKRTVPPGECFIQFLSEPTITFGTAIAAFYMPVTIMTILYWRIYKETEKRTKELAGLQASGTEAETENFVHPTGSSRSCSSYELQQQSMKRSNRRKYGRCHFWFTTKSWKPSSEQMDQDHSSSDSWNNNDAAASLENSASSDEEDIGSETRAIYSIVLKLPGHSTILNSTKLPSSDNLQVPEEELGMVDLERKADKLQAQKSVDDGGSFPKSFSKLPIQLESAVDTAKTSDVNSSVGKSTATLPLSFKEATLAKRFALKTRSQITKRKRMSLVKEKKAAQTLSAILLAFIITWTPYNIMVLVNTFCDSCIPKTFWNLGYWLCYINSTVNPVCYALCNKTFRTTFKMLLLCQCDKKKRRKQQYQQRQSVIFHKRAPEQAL

[12] = target: Alpha-1A adrenergic receptor (Homo sapiens, UniProt P35348)
Sequence of Alpha-1A adrenergic receptor (P35348 whole entry): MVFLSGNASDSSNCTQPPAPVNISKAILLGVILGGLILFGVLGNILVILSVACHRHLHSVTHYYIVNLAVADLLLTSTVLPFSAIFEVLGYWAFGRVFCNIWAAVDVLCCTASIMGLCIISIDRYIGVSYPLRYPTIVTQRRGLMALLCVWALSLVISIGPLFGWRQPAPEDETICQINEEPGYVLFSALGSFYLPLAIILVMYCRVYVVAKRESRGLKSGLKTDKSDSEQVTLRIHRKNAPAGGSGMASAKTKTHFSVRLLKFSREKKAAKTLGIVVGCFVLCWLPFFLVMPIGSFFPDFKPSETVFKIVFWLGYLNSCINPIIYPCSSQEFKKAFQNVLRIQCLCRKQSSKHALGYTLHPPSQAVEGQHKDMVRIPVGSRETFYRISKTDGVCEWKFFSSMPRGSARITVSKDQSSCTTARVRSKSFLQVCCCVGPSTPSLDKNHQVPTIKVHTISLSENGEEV

D(1A) dopamine receptor = D(1A) dopamine receptor (Homo sapiens, UniProt P21728)
[13] = target: 5-hydroxytryptamine receptor 5A (Homo sapiens, UniProt P47898)
[14] = target: 5-hydroxytryptamine receptor 2C (Rattus norvegicus, UniProt P08909)
D(1B) dopamine receptor = D(1B) dopamine receptor (Homo sapiens, UniProt P21918)
[15] = target: Alpha-2B adrenergic receptor (Homo sapiens, UniProt P18089)
[16] = target: Alpha-2C adrenergic receptor (Homo sapiens, UniProt P18825)
Sequence of Alpha-2C adrenergic receptor (P18825 whole entry): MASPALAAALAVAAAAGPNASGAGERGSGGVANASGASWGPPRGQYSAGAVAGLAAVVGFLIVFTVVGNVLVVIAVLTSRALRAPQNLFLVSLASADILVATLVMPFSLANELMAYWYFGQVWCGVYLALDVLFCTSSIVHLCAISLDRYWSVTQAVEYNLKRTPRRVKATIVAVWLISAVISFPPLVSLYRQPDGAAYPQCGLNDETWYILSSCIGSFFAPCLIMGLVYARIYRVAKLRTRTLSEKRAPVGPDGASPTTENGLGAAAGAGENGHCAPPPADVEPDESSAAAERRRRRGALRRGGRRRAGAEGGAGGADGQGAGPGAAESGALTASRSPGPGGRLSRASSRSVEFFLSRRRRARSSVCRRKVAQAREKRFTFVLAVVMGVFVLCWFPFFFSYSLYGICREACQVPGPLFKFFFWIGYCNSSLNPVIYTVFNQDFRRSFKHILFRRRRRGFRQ

[17] = target: Muscarinic acetylcholine receptor M1 (Homo sapiens, UniProt P11229)
Sequence of Muscarinic acetylcholine receptor M1 (P11229 whole entry): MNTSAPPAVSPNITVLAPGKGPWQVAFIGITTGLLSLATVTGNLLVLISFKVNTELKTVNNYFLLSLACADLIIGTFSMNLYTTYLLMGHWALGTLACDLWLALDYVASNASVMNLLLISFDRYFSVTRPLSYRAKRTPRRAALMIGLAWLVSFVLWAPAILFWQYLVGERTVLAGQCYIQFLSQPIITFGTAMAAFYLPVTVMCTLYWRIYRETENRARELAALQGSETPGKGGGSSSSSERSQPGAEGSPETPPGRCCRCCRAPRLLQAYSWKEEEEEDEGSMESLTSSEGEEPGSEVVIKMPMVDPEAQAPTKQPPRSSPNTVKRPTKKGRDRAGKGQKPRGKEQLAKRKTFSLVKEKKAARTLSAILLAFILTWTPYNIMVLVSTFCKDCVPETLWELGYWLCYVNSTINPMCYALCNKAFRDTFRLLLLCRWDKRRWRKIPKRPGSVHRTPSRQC

[18] = target: Alpha-1B adrenergic receptor (Homo sapiens, UniProt P35368)
Sequence of Alpha-1B adrenergic receptor (P35368 whole entry): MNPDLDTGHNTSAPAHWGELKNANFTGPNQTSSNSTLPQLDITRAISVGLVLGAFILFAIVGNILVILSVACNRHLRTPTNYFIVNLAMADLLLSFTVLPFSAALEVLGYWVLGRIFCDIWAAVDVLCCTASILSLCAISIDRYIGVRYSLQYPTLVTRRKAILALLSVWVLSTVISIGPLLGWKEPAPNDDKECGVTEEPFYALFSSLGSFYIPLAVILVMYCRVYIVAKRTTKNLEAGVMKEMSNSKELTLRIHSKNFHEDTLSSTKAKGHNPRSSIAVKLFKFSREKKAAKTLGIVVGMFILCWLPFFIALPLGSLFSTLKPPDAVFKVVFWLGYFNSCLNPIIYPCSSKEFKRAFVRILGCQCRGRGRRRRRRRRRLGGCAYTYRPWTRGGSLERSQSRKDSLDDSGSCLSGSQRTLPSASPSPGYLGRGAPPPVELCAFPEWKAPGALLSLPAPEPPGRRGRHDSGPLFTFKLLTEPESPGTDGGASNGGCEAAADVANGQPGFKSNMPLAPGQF

Vasopressin V1b receptor = Vasopressin V1b receptor (Homo sapiens, UniProt P47901)
[19] = target: Muscarinic acetylcholine receptor M4 (Homo sapiens, UniProt P08173)
Sequence of Muscarinic acetylcholine receptor M4 (P08173 whole entry): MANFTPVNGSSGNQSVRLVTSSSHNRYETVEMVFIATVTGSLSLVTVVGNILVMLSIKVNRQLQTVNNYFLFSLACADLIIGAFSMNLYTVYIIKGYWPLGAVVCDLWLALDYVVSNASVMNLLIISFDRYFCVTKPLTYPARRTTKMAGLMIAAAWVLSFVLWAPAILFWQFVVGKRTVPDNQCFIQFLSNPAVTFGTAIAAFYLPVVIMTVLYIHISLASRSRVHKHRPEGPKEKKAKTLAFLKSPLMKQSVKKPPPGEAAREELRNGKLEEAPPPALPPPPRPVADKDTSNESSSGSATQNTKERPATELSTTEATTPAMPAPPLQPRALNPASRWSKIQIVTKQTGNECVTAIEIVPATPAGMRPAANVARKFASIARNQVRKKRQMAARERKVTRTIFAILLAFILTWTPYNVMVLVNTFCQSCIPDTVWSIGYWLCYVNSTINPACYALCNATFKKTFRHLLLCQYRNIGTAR

D(4) dopamine receptor = D(4) dopamine receptor (Rattus norvegicus, UniProt P30729)
[20] = target: Sodium-dependent dopamine transporter (Bos taurus, UniProt P27922)
[21] = target: Glutamate receptor ionotropic, NMDA 1 (Rattus norvegicus, UniProt P35439)
[22] = target: Muscarinic acetylcholine receptor M5 (Homo sapiens, UniProt P08912)
[23] = target: Beta-1 adrenergic receptor (Homo sapiens, UniProt P08588)
Sequence of Beta-1 adrenergic receptor (P08588 whole entry): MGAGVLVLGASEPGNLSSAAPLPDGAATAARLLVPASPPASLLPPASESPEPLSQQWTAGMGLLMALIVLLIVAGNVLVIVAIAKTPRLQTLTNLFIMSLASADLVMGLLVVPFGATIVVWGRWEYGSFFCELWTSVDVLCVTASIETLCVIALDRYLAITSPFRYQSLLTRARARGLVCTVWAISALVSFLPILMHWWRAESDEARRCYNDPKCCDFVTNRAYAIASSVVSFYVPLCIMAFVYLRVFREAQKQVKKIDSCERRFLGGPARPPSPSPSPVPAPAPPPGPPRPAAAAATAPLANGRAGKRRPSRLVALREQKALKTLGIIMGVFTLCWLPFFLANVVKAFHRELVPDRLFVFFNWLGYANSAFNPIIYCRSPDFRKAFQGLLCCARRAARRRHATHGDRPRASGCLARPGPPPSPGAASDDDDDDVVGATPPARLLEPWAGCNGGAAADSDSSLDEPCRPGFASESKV

[24] = target: Alpha-2A adrenergic receptor (Homo sapiens, UniProt P08913)
Sequence of Alpha-2A adrenergic receptor (P08913 whole entry): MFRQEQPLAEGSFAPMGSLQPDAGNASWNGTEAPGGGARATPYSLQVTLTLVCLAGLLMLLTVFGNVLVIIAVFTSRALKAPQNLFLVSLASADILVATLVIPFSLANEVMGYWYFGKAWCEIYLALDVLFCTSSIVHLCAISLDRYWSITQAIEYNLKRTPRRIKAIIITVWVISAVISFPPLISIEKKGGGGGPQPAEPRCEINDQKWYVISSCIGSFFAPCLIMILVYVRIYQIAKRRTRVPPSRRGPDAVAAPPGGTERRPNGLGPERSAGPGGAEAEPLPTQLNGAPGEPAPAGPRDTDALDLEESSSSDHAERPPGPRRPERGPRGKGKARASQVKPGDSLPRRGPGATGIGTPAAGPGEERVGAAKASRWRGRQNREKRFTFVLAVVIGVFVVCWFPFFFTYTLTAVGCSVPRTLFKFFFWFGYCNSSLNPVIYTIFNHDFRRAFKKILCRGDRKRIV

CC(CF)NCC(O)COc1cccc2[nH]c3ccccc3c12 [Fluorocarazolol,(S)]
Ki [1]: > 10 µM | Ki [2]: > 10 µM | Ki [3]: > 10 µM | Ki [4]: > 10 µM | Ki (Mu-type opioid receptor): > 10 µM | Ki [5]: > 10 µM | Ki [6]: > 10 µM | Ki [7]: 3.28 µM and 3.09 µM | Ki [8]: 7.07 µM and 6.4 µM | Ki (D(2) dopamine receptor): > 10 µM | Ki [9]: > 10 µM | Ki [10]: 0.138 nM and 0.079 nM | Ki [11]: > 10000 nM and 1590 nM | Ki [12]: 3200 nM and 611 nM | Ki (D(1A) dopamine receptor): > 10 µM | Ki [13]: > 10 µM | Ki [14]: > 10 µM | Ki (D(1B) dopamine receptor): > 10 µM | Ki [15]: > 10 µM and 8.85 µM | Ki [16]: 1.89 µM and 4.4 µM | Ki [17]: 2730 nM and 1750 nM | Ki [18]: 4600 nM and 677 nM | Ki (Vasopressin V1b receptor): > 10 µM | Ki [19]: 5.41 µM and > 10 µM | Ki (D(4) dopamine receptor): > 10 µM | Ki [20]: > 10 µM | Ki [21]: > 10 µM | Ki [22]: 4.88 µM and 5.89 µM | Ki [23]: 0.45 nM and 0.114 nM | Ki [24]: 3.36 µM and 2.87 µM
